This passage reports MIC results from ChEMBL document CHEMBL4402537, “Recent development of membrane-active molecules as antibacterial agents” (2019).

Values after ≈ are worked out from the molar mass of the structure shown.

Common to all, as to assay type: functional
Test [1] has as its system Staphylococcus aureus. The test is described as follows: Antibacterial activity against Staphylococcus aureus after 10 hrs by broth microdilution assay. A general note: Broth dilution looks for growth in wells or tubes with falling amounts of substance.
Another test concerns Escherichia coli. As to the kind of experiment: Antibacterial activity against Escherichia coli after 10 hrs by broth microdilution assay.
The test system of test [2] is Staphylococcus aureus. As to the kind of experiment: Antibacterial activity against Staphylococcus aureus ATCC 29213 after 18 to 20 hrs by CLSI based direct colony suspension method.
In another test the test system is Bacillus cereus. As to the kind of experiment: Antibacterial activity against Bacillus cereus ATCC 11778 after 18 to 20 hrs by CLSI based direct colony suspension method.
The test system of the next test is Enterococcus faecalis. As to the kind of experiment: Antibacterial activity against Enterococcus faecalis ATCC 29212 after 18 to 20 hrs by CLSI based direct colony suspension method.
For test [3], the system named is Staphylococcus aureus. As to the kind of experiment: Antibacterial activity against methicillin resistant Staphylococcus aureus DM21455 after 18 to 20 hrs by CLSI based direct colony suspension method.
The subject of test [4] is Staphylococcus aureus. The test is described as follows: Antibacterial activity against methicillin resistant Staphylococcus aureus DM09808R after 18 to 20 hrs by CLSI based direct colony suspension method.
For test [5], the system named is Staphylococcus aureus. As to the kind of experiment: Antibacterial activity against methicillin resistant Staphylococcus aureus DB57964/04 after 18 to 20 hrs by CLSI based direct colony suspension method.
For test [6], the system named is Staphylococcus aureus. The test is described as follows: Antibacterial activity against methicillin resistant Staphylococcus aureus.
For test [7], the system named is Staphylococcus aureus. As to the kind of experiment: Antibacterial activity against methicillin resistant Staphylococcus aureus clinical isolate.
The next test concerns Acinetobacter baumannii. As to the kind of experiment: Antibacterial activity against Acinetobacter baumannii.
A further test deals with Klebsiella pneumoniae. As to the kind of experiment: Antibacterial activity against Klebsiella pneumoniae.

Usually MIC stands for the least concentration at which growth counts as inhibited. Higher therefore signals a need for much substance. On to `CCCCCCCCCCCCNC(=O)C[N+](C)(C)C`, for which the minimum inhibitory concentration (MIC) in the test on Staphylococcus aureus [1] was determined as 43 µM; against Escherichia coli it was 35 µM.
In the case of `COc1c(O)cc2oc3cc(O)c(CC=C(C)C)c(O)c3c(=O)c2c1CC=C(C)C` [MANGOSTIN], the MIC in the test with Staphylococcus aureus [2], with Bacillus cereus, against Enterococcus faecalis, in the test with Staphylococcus aureus [3], against Staphylococcus aureus [4] and in the test on Staphylococcus aureus [5] was 0.78 to 1.56 mg/L (≈ 1.9 to 3.8 µM) in each case.
In the case of `CCCCCCN(Cc1ccc(-c2ccc(CN(CCCCCC)C(=O)[C@@H](N)CCCCN)cc2)cc1)C(=O)[C@@H](N)CCCCN.O=C(O)C(F)(F)F.O=C(O)C(F)(F)F.O=C(O)C(F)(F)F.O=C(O)C(F)(F)F`, the MIC with Staphylococcus aureus [6] came out at 3.1 mg/L; in the test with Staphylococcus aureus [7], 6.2 mg/L.
The compound `CCCCCCCCCCCCCC(=O)N(CCCNC(=O)[C@H](N)CCCCN)CCCNC(=O)[C@H](N)CCCCN.O=C(O)C(F)(F)F.O=C(O)C(F)(F)F.O=C(O)C(F)(F)F.O=C(O)C(F)(F)F` had a minimum inhibitory concentration (MIC) in the test on Staphylococcus aureus [6] of 3.1 to 6.3 mg/L.
For the compound `CCCCCCCCCCCCNC(=O)C[N+](C)(C)CCCCCC[N+](C)(C)CC(=O)NCCCCCCCCCCCC`, the values for the minimum inhibitory concentration (MIC) with Staphylococcus aureus [1] and against Escherichia coli were 10 µM and 13 µM, respectively.
As to `CCCCCCCC(=O)N(CCCNC(=O)[C@@H](CCCCN)NC(=O)[C@H](N)CCCCN)CCCNC(=O)[C@@H](CCCCN)NC(=O)[C@H](N)CCCCN.O=C(O)C(F)(F)F.O=C(O)C(F)(F)F.O=C(O)C(F)(F)F.O=C(O)C(F)(F)F.O=C(O)C(F)(F)F.O=C(O)C(F)(F)F`, the minimal inhibitory concentration (MIC) in the test on Staphylococcus aureus [6], in the test on Acinetobacter baumannii and with Klebsiella pneumoniae was 6.3 to 12.5 mg/L each time.
